# Experimental data reported in ChEMBL document CHEMBL2177072, “Design and synthesis of β-site amyloid precursor protein cleaving enzyme (BACE1) inhibitors with in vivo brain reduction of β-amyloid peptides” (J Med Chem, 2012).
# Calls of active or inactive are those of the source. No cut-off for these calls is given here.
# Target: T1, Beta-secretase 1 (Homo sapiens, UniProt P56817)
# Assay: not given
# Type: cell-based, SH-SY5Y
# Settings: not given
# T1 sequence (P56817 whole entry): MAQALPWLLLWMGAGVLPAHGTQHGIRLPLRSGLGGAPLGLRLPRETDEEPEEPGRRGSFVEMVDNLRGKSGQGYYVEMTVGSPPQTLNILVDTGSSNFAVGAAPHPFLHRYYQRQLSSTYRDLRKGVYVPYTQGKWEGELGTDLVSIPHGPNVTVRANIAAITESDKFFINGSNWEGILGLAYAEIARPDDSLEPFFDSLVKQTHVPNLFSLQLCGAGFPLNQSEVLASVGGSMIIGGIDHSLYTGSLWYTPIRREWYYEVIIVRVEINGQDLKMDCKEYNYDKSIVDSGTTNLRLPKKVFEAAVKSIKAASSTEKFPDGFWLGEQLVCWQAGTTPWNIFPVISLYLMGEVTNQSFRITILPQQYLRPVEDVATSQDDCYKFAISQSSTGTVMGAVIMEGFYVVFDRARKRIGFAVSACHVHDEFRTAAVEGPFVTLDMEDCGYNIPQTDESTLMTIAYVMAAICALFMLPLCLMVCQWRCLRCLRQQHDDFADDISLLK
row,SMILES,IC50
1,N#Cc1cncc(-c2cccc(C3(c4ccnc(C(F)(F)F)c4)N=C(N)c4c(F)cccc43)c2)c1 (stereo unspecified),29.9 nM
2,CC#Cc1cncc(-c2cccc([C@@]3(c4cc(C)c(=O)n(CC)c4)N=C(N)c4c(F)cc(F)cc43)c2)c1,0.38 nM
3,CCn1cc([C@]2(c3cccc(C#CC4CC4)c3)N=C(N)c3c(F)cccc32)cc(C)c1=O,0.76 nM
4,NC1=NC(c2ccncc2)(c2cccc(-c3cncnc3)c2)c2cccc(F)c21 (racemic),11.4 nM
5,NC1=NC(c2cccc(-c3cncnc3)c2)(c2ccnc(C(F)(F)F)c2)c2cccc(F)c21 (stereo unspecified),43.1 nM
6,CCn1cc(C2(c3cccc(-c4cncc(C#N)c4)c3)N=C(N)c3c(F)cccc32)cc(C)c1=O (stereo unspecified),1.84 nM
7,COc1ccc(C2(c3cccc(-c4cncnc4)c3)N=C(N)c3c(F)cccc32)cc1 (stereo unspecified),12.5 nM
8,NC1=NC(c2cccc(-c3cncnc3)c2)(c2ccnc(C(F)(F)F)c2)c2ccccc21 (stereo unspecified),2.1 nM
9,NC1=N[C@](c2ccncc2)(c2cccc(-c3cncnc3)c2)c2cccc(F)c21,8.25 nM

# Target: T1, Beta-secretase 1
# Assay: not given
# Settings: not given
# Remark: another data set of the same source
row,SMILES,IC50
1,N#Cc1cncc(-c2cccc(C3(c4ccnc(C(F)(F)F)c4)N=C(N)c4c(F)cccc43)c2)c1 (stereo unspecified),253 nM
2,CC#Cc1cncc(-c2cccc([C@@]3(c4cc(C)c(=O)n(CC)c4)N=C(N)c4c(F)cc(F)cc43)c2)c1,2.59 nM
3,CCn1cc([C@]2(c3cccc(C#CC4CC4)c3)N=C(N)c3c(F)cccc32)cc(C)c1=O,6.08 nM
4,NC1=NC(c2ccncc2)(c2cccc(-c3cncnc3)c2)c2cccc(F)c21 (racemic),158 nM
5,CCn1cc(C2(c3cccc(-c4cncc(C#N)c4)c3)N=C(N)c3c(F)cccc32)cc(C)c1=O (stereo unspecified),8.26 nM
6,COc1ccc(C2(c3cccc(-c4cncnc4)c3)N=C(N)c3c(F)cccc32)cc1 (stereo unspecified),135 nM
7,NC1=NC(c2cccc(-c3cncnc3)c2)(c2ccnc(C(F)(F)F)c2)c2ccccc21 (stereo unspecified),134 nM
8,NC1=N[C@](c2ccncc2)(c2cccc(-c3cncnc3)c2)c2cccc(F)c21,124 nM

# Tested on: not listed separately
# Assay: Ratio of free drug concentration in brain to free drug concentration in plasma in C57BL/6 mouse at 80 umol/kg, po at […]
# Type: ADME, organism-based
# Settings: not given
row,SMILES,"K(p,uu,brain)"
1,NC1=N[C@@](c2cccc(-c3cncnc3)c2)(c2ccnc(C(F)F)c2)c2cccc(F)c21 [AZD-3839],0.7

# Tested on: Brain
# Assay: Free drug concentration in C57BL/6 mouse brain at 80 umol/kg, po at […]
# Type: ADME, organism-based
# Settings: in vivo
row,SMILES,Drug uptake(free)
1,NC1=N[C@@](c2cccc(-c3cncnc3)c2)(c2ccnc(C(F)F)c2)c2cccc(F)c21 [AZD-3839],119 nM

# Tested on: Brain
# Assay: Free drug concentration in C57BL/6 mouse brain at 300 umol/kg, po at […]
# Type: ADME, organism-based
# Settings: in vivo
row,SMILES,Drug uptake(free)
1,NC1=N[C@](c2ccnc(C(F)(F)F)c2)(c2ccc(F)c(-c3cncnc3)c2)c2cccc(F)c21,406 nM

# Tested on: Plasma
# Assay: Free drug concentration in C57BL/6 mouse plasma at 80 umol/kg, po at […]
# Type: ADME, organism-based
# Settings: in vivo
row,SMILES,Cp(f)
1,NC1=N[C@@](c2cccc(-c3cncnc3)c2)(c2ccnc(C(F)F)c2)c2cccc(F)c21 [AZD-3839],170 nM

# Tested on: Plasma
# Assay: Free drug concentration in C57BL/6 mouse plasma at 300 umol/kg, po at […]
# Type: ADME, organism-based
# Settings: in vivo
row,SMILES,Cp(f)
1,NC1=N[C@](c2ccnc(C(F)(F)F)c2)(c2ccc(F)c(-c3cncnc3)c2)c2cccc(F)c21,795 nM

# Organism: Mus musculus
# Assay: Antialzheimer activity in C57BL/6 mouse assessed as unbound brain concentration required for 20% reduction in amyloid beta 40 level in brain at 1.5 by ELISA
# Type: functional
# Settings: not given
row,SMILES,Activity
1,NC1=N[C@](c2ccnc(C(F)(F)F)c2)(c2ccc(F)c(-c3cncnc3)c2)c2cccc(F)c21,114 nM

# Tested on: Mus musculus
# Assay: Antialzheimer activity in C57BL/6 mouse assessed as reduction in sAPPbeta level in brain at 80 umol/kg, po
# Type: functional, organism-based
# Settings: not given
row,SMILES,Activity
1,NC1=N[C@@](c2cccc(-c3cncnc3)c2)(c2ccnc(C(F)F)c2)c2cccc(F)c21 [AZD-3839],Active

# Tested on: Mus musculus
# Assay: Antialzheimer activity in C57BL/6 mouse assessed as reduction in sAPPbeta level in brain at 300 umol/kg, po
# Type: functional, organism-based
# Settings: not given
row,SMILES,Activity
1,NC1=N[C@](c2ccnc(C(F)(F)F)c2)(c2ccc(F)c(-c3cncnc3)c2)c2cccc(F)c21,Active

# Tested on: Mus musculus
# Assay: Antialzheimer activity in C57BL/6 mouse assessed as reduction in amyloid beta 42 level in brain at 80 umol/kg, po
# Type: functional, organism-based
# Settings: not given
row,SMILES,Activity
1,NC1=N[C@@](c2cccc(-c3cncnc3)c2)(c2ccnc(C(F)F)c2)c2cccc(F)c21 [AZD-3839],Active

# Tested on: Mus musculus
# Assay: Antialzheimer activity in C57BL/6 mouse assessed as reduction in amyloid beta 42 level in brain at 300 umol/kg, po
# Type: functional, organism-based
# Settings: not given
row,SMILES,Activity
1,NC1=N[C@](c2ccnc(C(F)(F)F)c2)(c2ccc(F)c(-c3cncnc3)c2)c2cccc(F)c21,Active

# Tested on: not listed separately
# Assay: Fraction unbound in C57BL/6 mouse brain at 80 umol/kg, po
# Type: ADME, organism-based
# Settings: not given
row,SMILES,fraction unbound
1,NC1=N[C@@](c2cccc(-c3cncnc3)c2)(c2ccnc(C(F)F)c2)c2cccc(F)c21 [AZD-3839],0.079

# Tested on: not listed separately
# Assay: Fraction unbound in C57BL/6 mouse brain at 300 umol/kg, po
# Type: ADME, organism-based
# Settings: not given
row,SMILES,fraction unbound
1,NC1=N[C@](c2ccnc(C(F)(F)F)c2)(c2ccc(F)c(-c3cncnc3)c2)c2cccc(F)c21,0.025

# Tested on: not listed separately
# Assay: Fraction unbound in C57BL/6 mouse plasma at 80 umol/kg, po
# Type: ADME, organism-based
# Settings: not given
row,SMILES,fraction unbound
1,NC1=N[C@@](c2cccc(-c3cncnc3)c2)(c2ccnc(C(F)F)c2)c2cccc(F)c21 [AZD-3839],0.027

# Tested on: not listed separately
# Assay: Fraction unbound in C57BL/6 mouse plasma at 300 umol/kg, po
# Type: ADME, organism-based
# Settings: not given
row,SMILES,fraction unbound
1,NC1=N[C@](c2ccnc(C(F)(F)F)c2)(c2ccc(F)c(-c3cncnc3)c2)c2cccc(F)c21,0.044

# Tested on: Mus musculus
# Assay: Antialzheimer activity in C57BL/6 mouse assessed as reduction in amyloid beta 40 level in brain at 80 umol/kg, po at […] by ELISA relative to control
# Type: functional
# Design: scale not given: the % may be the effect or the level left
# Settings: not given
row,SMILES,Activity
1,NC1=N[C@@](c2cccc(-c3cncnc3)c2)(c2ccnc(C(F)F)c2)c2cccc(F)c21 [AZD-3839],31%

# Tested on: Mus musculus
# Assay: Antialzheimer activity in C57BL/6 mouse assessed as reduction in amyloid beta 40 level in brain at 300 umol/kg, po at […] by ELISA relative to control
# Type: functional
# Design: scale not given: the % may be the effect or the level left
# Settings: not given
row,SMILES,Activity
1,NC1=N[C@](c2ccnc(C(F)(F)F)c2)(c2ccc(F)c(-c3cncnc3)c2)c2cccc(F)c21,50%

# Target: T2, Beta-secretase 2 (Homo sapiens, UniProt Q9Y5Z0)
# T2 sequence (Q9Y5Z0 whole entry): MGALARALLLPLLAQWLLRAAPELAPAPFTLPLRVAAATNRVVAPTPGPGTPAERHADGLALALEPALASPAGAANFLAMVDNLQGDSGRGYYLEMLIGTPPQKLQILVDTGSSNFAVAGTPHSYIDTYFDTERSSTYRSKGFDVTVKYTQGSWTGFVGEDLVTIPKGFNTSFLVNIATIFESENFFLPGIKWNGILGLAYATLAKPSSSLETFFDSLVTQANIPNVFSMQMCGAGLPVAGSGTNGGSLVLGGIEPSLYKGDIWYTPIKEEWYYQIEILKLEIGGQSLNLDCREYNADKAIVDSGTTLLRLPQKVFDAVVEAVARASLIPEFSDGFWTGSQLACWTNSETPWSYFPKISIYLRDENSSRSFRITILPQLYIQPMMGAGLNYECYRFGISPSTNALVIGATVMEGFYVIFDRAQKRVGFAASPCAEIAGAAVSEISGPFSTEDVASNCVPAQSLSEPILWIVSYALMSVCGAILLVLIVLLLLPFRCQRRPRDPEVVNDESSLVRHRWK
# Assay: not given
# Settings: not given
row,SMILES,Ki
1,CCn1cc([C@]2(c3cccc(C#CC4CC4)c3)N=C(N)c3c(F)cccc32)cc(C)c1=O,78 nM
2,NC1=N[C@](c2ccncc2)(c2cccc(-c3cncnc3)c2)c2cccc(F)c21,790 nM
3,NC1=N[C@@](c2cccc(-c3cncnc3)c2)(c2ccnc(C(F)F)c2)c2cccc(F)c21 [AZD-3839],370 nM

# Target: Voltage-gated inwardly rectifying potassium channel KCNH2 (Homo sapiens, UniProt Q12809)
# Assay: not given
# Settings: not given
# Chain of Voltage-gated inwardly rectifying potassium channel KCNH2 (Q12809 whole entry): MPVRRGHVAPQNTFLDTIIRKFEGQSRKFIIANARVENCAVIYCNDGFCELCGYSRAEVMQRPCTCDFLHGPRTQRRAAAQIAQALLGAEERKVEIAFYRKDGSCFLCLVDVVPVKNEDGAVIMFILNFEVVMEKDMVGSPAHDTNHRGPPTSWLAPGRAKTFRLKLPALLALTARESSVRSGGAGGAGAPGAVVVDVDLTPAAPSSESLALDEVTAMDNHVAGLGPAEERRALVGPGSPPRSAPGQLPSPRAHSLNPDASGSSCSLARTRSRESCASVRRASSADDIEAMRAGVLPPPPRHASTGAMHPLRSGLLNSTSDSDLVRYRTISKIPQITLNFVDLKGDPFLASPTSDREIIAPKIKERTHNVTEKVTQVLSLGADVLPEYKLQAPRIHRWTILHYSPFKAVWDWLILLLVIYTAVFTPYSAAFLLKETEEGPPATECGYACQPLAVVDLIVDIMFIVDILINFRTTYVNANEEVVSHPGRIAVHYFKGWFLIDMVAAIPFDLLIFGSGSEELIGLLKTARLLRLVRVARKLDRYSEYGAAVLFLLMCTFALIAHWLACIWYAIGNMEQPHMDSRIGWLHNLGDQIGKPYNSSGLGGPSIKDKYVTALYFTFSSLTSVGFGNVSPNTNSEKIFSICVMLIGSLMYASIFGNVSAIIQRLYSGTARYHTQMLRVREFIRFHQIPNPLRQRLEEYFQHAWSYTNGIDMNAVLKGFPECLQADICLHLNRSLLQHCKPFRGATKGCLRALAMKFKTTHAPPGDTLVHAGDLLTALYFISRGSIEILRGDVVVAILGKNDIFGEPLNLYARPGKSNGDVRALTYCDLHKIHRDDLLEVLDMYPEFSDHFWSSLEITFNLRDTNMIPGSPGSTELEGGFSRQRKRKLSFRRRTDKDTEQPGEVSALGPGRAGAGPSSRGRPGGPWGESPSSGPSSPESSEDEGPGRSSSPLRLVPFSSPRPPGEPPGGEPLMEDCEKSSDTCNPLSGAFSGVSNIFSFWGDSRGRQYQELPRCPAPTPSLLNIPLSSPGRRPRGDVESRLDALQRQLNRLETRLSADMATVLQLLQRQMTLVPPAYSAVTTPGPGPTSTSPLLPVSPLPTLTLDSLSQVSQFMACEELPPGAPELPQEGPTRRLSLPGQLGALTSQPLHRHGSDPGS
row,SMILES,IC50
1,N#Cc1cncc(-c2cccc(C3(c4ccnc(C(F)(F)F)c4)N=C(N)c4c(F)cccc43)c2)c1 (stereo unspecified),1700 nM

# Target: Beta-secretase 1 (Mus musculus, UniProt P56818)
# Assay: not given
# Settings: not given
# Chain of Beta-secretase 1 (Mus musculus, UniProt P56818) (P56818 whole entry): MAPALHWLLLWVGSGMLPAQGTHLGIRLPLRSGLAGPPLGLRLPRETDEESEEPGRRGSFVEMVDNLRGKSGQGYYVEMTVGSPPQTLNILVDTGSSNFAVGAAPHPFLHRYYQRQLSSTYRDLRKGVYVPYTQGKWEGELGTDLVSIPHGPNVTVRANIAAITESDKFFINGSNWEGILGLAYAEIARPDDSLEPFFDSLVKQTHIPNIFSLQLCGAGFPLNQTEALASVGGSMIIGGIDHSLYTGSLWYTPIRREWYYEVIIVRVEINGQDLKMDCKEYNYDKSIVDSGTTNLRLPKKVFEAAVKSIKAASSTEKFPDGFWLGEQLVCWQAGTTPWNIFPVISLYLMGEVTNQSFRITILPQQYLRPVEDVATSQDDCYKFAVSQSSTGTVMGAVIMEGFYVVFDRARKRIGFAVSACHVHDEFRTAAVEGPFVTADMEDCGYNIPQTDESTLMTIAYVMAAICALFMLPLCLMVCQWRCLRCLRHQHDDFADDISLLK
row,SMILES,IC50
1,CCn1cc([C@]2(c3cccc(C#CC4CC4)c3)N=C(N)c3c(F)cccc32)cc(C)c1=O,3.4 nM
2,NC1=N[C@](c2ccnc(C(F)(F)F)c2)(c2ccc(F)c(-c3cncnc3)c2)c2cccc(F)c21,204 nM
3,NC1=NC(c2cccc(-c3cncnc3)c2)(c2ccnc(C(F)(F)F)c2)c2cccc(F)c21 (stereo unspecified),436 nM
4,NC1=N[C@](c2ccncc2)(c2cccc(-c3cncnc3)c2)c2cccc(F)c21,68 nM
5,NC1=N[C@@](c2cccc(-c3cncnc3)c2)(c2ccnc(C(F)F)c2)c2cccc(F)c21 [AZD-3839],51 nM

# Tested on: not listed separately
# Assay: in vivo
# Settings: mouse, po
# Description: Half life in po dosed mouse
row,SMILES,half-life
1,NC1=N[C@@](c2cccc(-c3cncnc3)c2)(c2ccnc(C(F)F)c2)c2cccc(F)c21 [AZD-3839],90 min

# Tested on: not listed separately
# Assay: in vivo
# Settings: mouse, po
# Remark: another data set of the same source
# Description: Oral bioavailability in mouse
row,SMILES,bioavailability
1,NC1=N[C@@](c2cccc(-c3cncnc3)c2)(c2ccnc(C(F)F)c2)c2cccc(F)c21 [AZD-3839],73%

# Tested on: not listed separately
# Assay: physchem
# Settings: not given
row,SMILES,logD
1,NC1=NC(c2ccnc(C(F)(F)F)c2)(c2ccc(F)c(-c3cncnc3)c2)c2cccc(F)c21 (racemic),3
2,N#Cc1cncc(-c2cccc(C3(c4ccnc(C(F)(F)F)c4)N=C(N)c4c(F)cccc43)c2)c1 (stereo unspecified),3.7
3,NC1=N[C@](c2ccnc(C(F)(F)F)c2)(c2ccc(F)c(-c3cncnc3)c2)c2cccc(F)c21,3
4,NC1=NC(c2cccc(-c3cncnc3)c2)(c2ccnc(C(F)F)c2)c2cccc(F)c21 (racemic),2
5,NC1=N[C@@](c2cccc(-c3cncnc3)c2)(c2ccnc(C(F)F)c2)c2cccc(F)c21 [AZD-3839],2

# Tested on: not listed separately
# Assay: physchem
# Settings: not given
# Remark: another data set of the same source
row,SMILES,pKa
1,NC1=NC(c2ccnc(C(F)(F)F)c2)(c2ccc(F)c(-c3cncnc3)c2)c2cccc(F)c21 (racemic),6.4
2,NC1=NC(c2cccc(-c3cncnc3)c2)(c2ccnc(C(F)F)c2)c2cccc(F)c21 (racemic),6.8
3,NC1=N[C@@](c2cccc(-c3cncnc3)c2)(c2ccnc(C(F)F)c2)c2cccc(F)c21 [AZD-3839],7.1

# Tested on: not listed separately
# Assay: in vitro
# Settings: rat, hepatocytes
row,SMILES,hepatocyte CLint
1,NC1=NC(c2ccnc(C(F)(F)F)c2)(c2ccc(F)c(-c3cncnc3)c2)c2cccc(F)c21 (racemic),6.9 µL/min/1e6 cells
2,N#Cc1cncc(-c2cccc(C3(c4ccnc(C(F)(F)F)c4)N=C(N)c4c(F)cccc43)c2)c1 (stereo unspecified),5.2 µL/min/1e6 cells
3,NC1=N[C@](c2ccnc(C(F)(F)F)c2)(c2ccc(F)c(-c3cncnc3)c2)c2cccc(F)c21,10 µL/min/1e6 cells
4,NC1=NC(c2cccc(-c3cncnc3)c2)(c2ccnc(C(F)F)c2)c2cccc(F)c21 (racemic),27.5 µL/min/1e6 cells
5,NC1=N[C@@](c2cccc(-c3cncnc3)c2)(c2ccnc(C(F)F)c2)c2cccc(F)c21 [AZD-3839],20.9 µL/min/1e6 cells

# Tested on: not listed separately
# Assay: in vitro
# Settings: human, Caco-2
# Description: Efflux ratio of apparent permeability from basal to apical to apical to basal side of human Caco2 cells at 10 uM after 60 mins by LC/MS analysis
row,SMILES,"efflux ratio at 1 h, 10 µM"
1,N#Cc1cncc(-c2cccc(C3(c4ccnc(C(F)(F)F)c4)N=C(N)c4c(F)cccc43)c2)c1 (stereo unspecified),0.8

# Tested on: not listed separately
# Assay: in vitro
# Settings: human, Caco-2
# Remark: another data set of the same source
# Description: Apparent permeability from apical to basal side of human Caco2 cells at 10 uM after 60 mins by LC/MS analysis
row,SMILES,"Papp A→B at 1 h, 10 µM"
1,NC1=NC(c2ccnc(C(F)(F)F)c2)(c2ccc(F)c(-c3cncnc3)c2)c2cccc(F)c21 (racemic),25 ×10⁻⁶ cm/s
2,N#Cc1cncc(-c2cccc(C3(c4ccnc(C(F)(F)F)c4)N=C(N)c4c(F)cccc43)c2)c1 (stereo unspecified),16 ×10⁻⁶ cm/s
3,NC1=N[C@](c2ccnc(C(F)(F)F)c2)(c2ccc(F)c(-c3cncnc3)c2)c2cccc(F)c21,30 ×10⁻⁶ cm/s
